# Experimental data published in ChEMBL document CHEMBL1137905, “Synthesis of anilino-monoindolylmaleimides as potent and selective PKCbeta inhibitors” (Bioorg Med Chem Lett, 2004).
# Legend:
# [1] = molecular target: T1, Protein kinase C beta type (Homo sapiens, UniProt P05771); test: Inhibitory concentration against recombinant human Protein kinase C beta 1
# [2] = molecular target: T2, Protein kinase C epsilon type (Homo sapiens, UniProt Q02156); test: Inhibitory concentration against recombinant human Protein kinase C epsilon
# T2 sequence (Q02156 whole entry): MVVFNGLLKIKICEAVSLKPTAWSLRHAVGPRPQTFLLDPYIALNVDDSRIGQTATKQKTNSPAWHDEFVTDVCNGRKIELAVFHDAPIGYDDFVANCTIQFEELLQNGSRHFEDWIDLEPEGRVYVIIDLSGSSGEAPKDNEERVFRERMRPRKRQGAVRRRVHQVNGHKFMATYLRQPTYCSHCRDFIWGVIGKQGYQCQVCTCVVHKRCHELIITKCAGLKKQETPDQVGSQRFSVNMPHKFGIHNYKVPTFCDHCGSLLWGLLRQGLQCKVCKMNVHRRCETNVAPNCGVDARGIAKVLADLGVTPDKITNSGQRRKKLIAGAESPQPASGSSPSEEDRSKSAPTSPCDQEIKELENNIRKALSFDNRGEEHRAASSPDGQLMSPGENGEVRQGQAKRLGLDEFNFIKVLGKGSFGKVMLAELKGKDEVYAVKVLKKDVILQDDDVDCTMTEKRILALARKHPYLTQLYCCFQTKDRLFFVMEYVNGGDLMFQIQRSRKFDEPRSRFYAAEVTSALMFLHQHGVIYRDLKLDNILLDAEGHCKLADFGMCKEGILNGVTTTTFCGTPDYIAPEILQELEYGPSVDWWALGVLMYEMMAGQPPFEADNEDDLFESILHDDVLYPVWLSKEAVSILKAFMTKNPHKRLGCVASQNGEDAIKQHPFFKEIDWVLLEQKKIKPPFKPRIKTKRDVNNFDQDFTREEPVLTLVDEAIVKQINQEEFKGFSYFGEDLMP
# [3] = molecular target: T1, Protein kinase C beta type; test: Inhibitory concentration against recombinant human Protein kinase C beta 2
# [4] = molecular target: Protein kinase C alpha type (Homo sapiens, UniProt P17252); test: Inhibitory concentration against recombinant human Protein kinase C alpha
# T1 sequence (P05771 whole entry): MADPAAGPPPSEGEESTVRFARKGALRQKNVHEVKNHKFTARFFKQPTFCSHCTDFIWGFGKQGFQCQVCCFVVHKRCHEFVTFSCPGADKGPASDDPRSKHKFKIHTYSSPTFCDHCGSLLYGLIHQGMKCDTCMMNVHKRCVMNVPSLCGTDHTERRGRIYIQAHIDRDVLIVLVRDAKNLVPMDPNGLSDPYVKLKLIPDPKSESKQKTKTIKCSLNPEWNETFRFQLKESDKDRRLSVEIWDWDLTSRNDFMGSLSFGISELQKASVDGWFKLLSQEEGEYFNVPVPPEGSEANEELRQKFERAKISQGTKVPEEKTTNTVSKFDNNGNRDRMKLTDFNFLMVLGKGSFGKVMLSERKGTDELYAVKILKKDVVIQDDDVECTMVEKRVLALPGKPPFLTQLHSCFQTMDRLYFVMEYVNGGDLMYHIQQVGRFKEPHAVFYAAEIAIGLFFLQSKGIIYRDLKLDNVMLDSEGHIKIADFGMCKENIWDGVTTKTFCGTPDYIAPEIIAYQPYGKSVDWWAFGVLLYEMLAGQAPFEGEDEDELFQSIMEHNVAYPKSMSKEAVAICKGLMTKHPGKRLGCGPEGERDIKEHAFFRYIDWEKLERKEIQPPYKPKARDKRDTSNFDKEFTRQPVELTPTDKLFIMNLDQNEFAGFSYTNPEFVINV
IC50 [2],IC50 [3],Compound,also measured
> 10 µM,,CN1CCN(CCCn2cc(C3=C(Nc4ccccc4)C(=O)NC3=O)c3ccccc32)CC1,
,2.86 µM,CC(C)c1cccc(NC2=C(c3c[nH]c4ccccc34)C(=O)NC2=O)c1,
5.87 µM,,CN(C)CCCCn1cc(C2=C(Nc3ccccc3)C(=O)NC2=O)c2ccccc21,
3.91 µM,0.041 µM,CN(C)CCCCCn1cc(C2=C(Nc3ccccc3)C(=O)NC2=O)c2ccccc21,IC50 [4]: 2.23 µM
> 10 µM,,CN(C)CCn1cc(C2=C(Nc3ccccc3)C(=O)NC2=O)c2ccccc21,
,0.747 µM,COc1cccc(NC2=C(c3c[nH]c4ccccc34)C(=O)NC2=O)c1,
,0.939 µM,CN(C1=C(c2c[nH]c3ccccc23)C(=O)NC1=O)c1ccccc1,
2.61 µM,,CN(C)CCCn1cc(C2=C(Nc3cccc(Cl)c3)C(=O)NC2=O)c2ccccc21,
2.81 µM,,O=C1NC(=O)C(c2cn(CCCn3ccnc3)c3ccccc23)=C1Nc1ccccc1,IC50 [1]: 0.021 µM
3.46 µM,,Cc1cccc(NC2=C(c3cn(CCCN(C)C)c4ccccc34)C(=O)NC2=O)c1,
,1.45 µM,O=C1NC(=O)C(c2c[nH]c3ccccc23)=C1Nc1cccc(C(F)(F)F)c1,
7.52 µM,0.212 µM,O=C1NC(=O)C(c2c[nH]c3ccccc23)=C1c1c[nH]c2ccccc12 [RO-316233],IC50 [1]: 0.304 µM; IC50 [4]: 1.6 µM

# Second part, the compound before the results:
Compound,IC50 [2],IC50 [3],also measured
O=C1NC(=O)C(c2c[nH]c3ccccc23)=C1Nc1ccccc1,> 10 µM,,IC50 [1]: 0.395 µM
O=C1NC(=O)C(c2cn(CCCN3CCCC3)c3ccccc23)=C1Nc1ccccc1,> 10 µM,,
O=C1NC(=O)C(c2c[nH]c3ccccc23)=C1NC1CCCCC1,,2.45 µM,
O=C1NC(=O)C(c2cn(CCCO)c3ccccc23)=C1Nc1ccccc1,6.32 µM,,
Cc1ccc(NC2=C(c3c[nH]c4ccccc34)C(=O)NC2=O)cc1,,0.48 µM,
O=C1NC(=O)C(c2cn(CCCN3CCCCC3)c3ccccc23)=C1Nc1ccccc1,3.42 µM,,
O=C1NC(=O)C(c2c[nH]c3ccccc23)=C1NCc1ccccc1,,> 10 µM,
CN(C)CCCn1cc(C2=C(Nc3ccccc3)C(=O)NC2=O)c2ccccc21,3.46 µM,,
Cc1ccccc1NC1=C(c2c[nH]c3ccccc23)C(=O)NC1=O,,2.15 µM,
N=C(N)SCCCn1cc(C2=C(Nc3ccccc3)C(=O)NC2=O)c2ccccc21,0.058 µM,,
